Data published in PubChem BioAssay AID248 (DTP/NCI, 2004).
Where “and” joins values, the source holds several entries; their conditions need not be identical. Equal values may be shown once. Toxic doses and inconclusive results are not listed. Rule as the data show it: active = T/C of 150% or more; inactive = T/C below 125%.

Tested on: L1210 leukemia ip in BDF1 mice, survival T/C
Assay: NCI In Vivo Anticancer Drug Screen. Data for tumor model L1210 Leukemia (intraperitoneal) in B6D2F1 (BDF1) mice
Conditions: endpoint: mean survival time, higher = longer survival
In short: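 Value reflects the ratio of survival in compound-treated mice to survival in vehicle-treated controls, with both groups carrying the same transplanted tumor.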

[1] = dose: 100.0 mg/kg/injection, schedule: Q01DX001 (ip), vehicle: Klucel (hydroxypropylcellulose) (HPC)
[2] = dose: 200.0 mg/kg/injection, schedule: Q01DX001 (ip), vehicle: Klucel (hydroxypropylcellulose) (HPC)
[3] = dose: 400.0 mg/kg/injection, schedule: Q01DX001 (ip), vehicle: Klucel (hydroxypropylcellulose) (HPC)
[4] = dose: 100.0 mg/kg/injection, schedule: Q01DX001 (ip), vehicle: saline
[5] = dose: 200.0 mg/kg/injection, schedule: Q01DX001 (ip), vehicle: saline

Measured: T/C

CC(=O)[C@H]1CC[C@H]2[C@@H]3C[C@H](C)C4=CC(=O)CC[C@]4(C)[C@H]3C(=O)C[C@]12C
inactive: dose: 20.0 mg/kg/injection, schedule: Q01DX009 (ip), vehicle: carboxymethylcellulose (CMC) 93 % of control | dose: 25.0 mg/kg/injection, schedule: Q01DX015 (sc), vehicle: steriod suspending solution 104 % of control | dose: 32.0 mg/kg/injection, schedule: Q03HX008 (ip), vehicle: Klucel (hydroxypropylcellulose) (HPC) 93 % of control | dose: 32.0 mg/kg/injection, schedule: Q03HX016 (ip), vehicle: Klucel (hydroxypropylcellulose) (HPC) 92 % of control | dose: 32.0 mg/kg/injection, schedule: Q03HX024 (ip), vehicle: Klucel (hydroxypropylcellulose) (HPC) 97 % of control | dose: 40.0 mg/kg/injection, schedule: Q01DX009 (ip), vehicle: carboxymethylcellulose (CMC) 96 % of control | dose: 50.0 mg/kg/injection, schedule: Q01DX015 (sc), vehicle: steriod suspending solution 96 % of control | dose: 64.0 mg/kg/injection, schedule: Q03HX008 (ip), vehicle: Klucel (hydroxypropylcellulose) (HPC) 92 % of control | dose: 64.0 mg/kg/injection, schedule: Q03HX016 (ip), vehicle: Klucel (hydroxypropylcellulose) (HPC) 94 % of control | dose: 64.0 mg/kg/injection, schedule: Q03HX024 (ip), vehicle: Klucel (hydroxypropylcellulose) (HPC) 93 % of control | dose: 67.0 mg/kg/injection, schedule: Q01DX Z (sc), vehicle: steriod suspending solution 103 % of control | dose: 80.0 mg/kg/injection, schedule: Q01DX Z (sc), vehicle: steriod suspending solution 106 % of control | dose: 100.0 mg/kg/injection, schedule: Q01DX015 (sc), vehicle: steriod suspending solution 98 % of control | dose: 100.0 mg/kg/injection, schedule: Q01DX Z (sc), vehicle: steriod suspending solution 109 % of control | dose: 120.0 mg/kg/injection, schedule: Q01DX Z (sc), vehicle: steriod suspending solution 101 % of control | dose: 123.0 mg/kg/injection, schedule: Q01DX009 (ip), vehicle: Klucel (hydroxypropylcellulose) (HPC) 100 % of control | dose: 123.0 mg/kg/injection, schedule: Q03HX008 (ip), vehicle: Klucel (hydroxypropylcellulose) (HPC) 95 % of control | dose: 123.0 mg/kg/injection, schedule: Q03HX016 (ip), vehicle: Klucel (hydroxypropylcellulose) (HPC) 93 % of control | dose: 123.0 mg/kg/injection, schedule: Q03HX024 (ip), vehicle: Klucel (hydroxypropylcellulose) (HPC) 98 % of control | dose: 150.0 mg/kg/injection, schedule: Q01DX Z (sc), vehicle: steriod suspending solution 106 % of control | dose: 160.0 mg/kg/injection, schedule: Q01DX009 (ip), vehicle: carboxymethylcellulose (CMC) 93 % of control | dose: 180.0 mg/kg/injection, schedule: Q01DX Z (sc), vehicle: steriod suspending solution 97 % of control | dose: 200.0 mg/kg/injection, schedule: Q01DX015 (sc), vehicle: steriod suspending solution 102 % of control and 104 % of control | dose: 220.0 mg/kg/injection, schedule: Q01DX Z (sc), vehicle: steriod suspending solution 97 % of control | dose: 255.0 mg/kg/injection, schedule: Q01DX001 (ip), vehicle: Klucel (hydroxypropylcellulose) (HPC) 96 % of control | dose: 255.0 mg/kg/injection, schedule: Q01DX009 (ip), vehicle: Klucel (hydroxypropylcellulose) (HPC) 103 % of control | dose: 255.0 mg/kg/injection, schedule: Q04DX003 (ip), vehicle: Klucel (hydroxypropylcellulose) (HPC) 97 % of control | dose: 255.0 mg/kg/injection, schedule: Q08DX002 (ip), vehicle: Klucel (hydroxypropylcellulose) (HPC) 104 % of control | dose: 270.0 mg/kg/injection, schedule: Q01DX Z (sc), vehicle: steriod suspending solution 89 % of control | dose: 320.0 mg/kg/injection, schedule: Q01DX009 (ip), vehicle: carboxymethylcellulose (CMC) 87 % of control | dose: 330.0 mg/kg/injection, schedule: Q01DX Z (sc), vehicle: steriod suspending solution 100 % of control | dose: 400.0 mg/kg/injection, schedule: Q01DX015 (sc), vehicle: steriod suspending solution 102 % of control | dose: 495.0 mg/kg/injection, schedule: Q01DX Z (sc), vehicle: steriod suspending solution 94 % of control | dose: 512.0 mg/kg/injection, schedule: Q08DX002 (ip), vehicle: Klucel (hydroxypropylcellulose) (HPC) 103 % of control | dose: 640.0 mg/kg/injection, schedule: Q01DX009 (ip), vehicle: carboxymethylcellulose (CMC) 92 % of control

Cc1ccc(S(=O)(=O)O/C=C2\CCOC2=O)cc1
inactive: dose: 100.0 mg/kg/injection, schedule: Q04DX002 (ip), vehicle: Klucel (hydroxypropylcellulose) (HPC) 105 % of control | dose: 200.0 mg/kg/injection, schedule: Q04DX002 (ip), vehicle: Klucel (hydroxypropylcellulose) (HPC) 112 % of control

NC(=S)c1cccc(S(N)(=O)=O)c1
inactive: [1] 100 % of control | [2] 103 % of control | [3] 103 % of control

S=c1cc[nH]c(=S)[nH]1
inactive: dose: 50.0 mg/kg/injection, schedule: Q04DX003 (ip), vehicle: Klucel (hydroxypropylcellulose) (HPC) 97 % of control | dose: 100.0 mg/kg/injection, schedule: Q04DX003 (ip), vehicle: Klucel (hydroxypropylcellulose) (HPC) 97 % of control | dose: 200.0 mg/kg/injection, schedule: Q04DX003 (ip), vehicle: Klucel (hydroxypropylcellulose) (HPC) 95 % of control

O=C1NC(c2cccs2)(c2cccs2)C(=O)N1Cl
inactive: dose: 6.25 mg/kg/injection, schedule: Q01DX009 (ip), vehicle: water 100 % of control | dose: 12.5 mg/kg/injection, schedule: Q01DX009 (ip), vehicle: water 97 % of control and 116 % of control | dose: 25.0 mg/kg/injection, schedule: Q01DX009 (ip), vehicle: water 98 % of control and 113 % of control | dose: 25.0 mg/kg/injection, schedule: Q04DX003 (ip), vehicle: water 92 % of control | dose: 50.0 mg/kg/injection, schedule: Q01DX009 (ip), vehicle: water 104 % of control and 87 % of control | dose: 50.0 mg/kg/injection, schedule: Q04DX003 (ip), vehicle: water 100 % of control | dose: 100.0 mg/kg/injection, schedule: Q01DX009 (ip), vehicle: water 87 % of control | dose: 100.0 mg/kg/injection, schedule: Q04DX003 (ip), vehicle: water 97 % of control and 112 % of control | dose: 150.0 mg/kg/injection, schedule: Q01DX009 (ip), vehicle: water 116 % of control | dose: 200.0 mg/kg/injection, schedule: Q01DX009 (ip), vehicle: water 93 % of control

CC(C)C1(C(C)C)S(=O)(=O)CCS1(=O)=O
inactive: [4] 98 % of control | [5] 93 % of control | dose: 400.0 mg/kg/injection, schedule: Q01DX001 (ip), vehicle: saline 102 % of control

CC(=O)N1C(=O)C2(Nc3ccccc3N2)c2ccccc21
inactive: dose: 100.0 mg/kg/injection, schedule: Q01DX001 (ip), vehicle: carboxymethylcellulose (CMC) 87 % of control | dose: 200.0 mg/kg/injection, schedule: Q01DX001 (ip), vehicle: carboxymethylcellulose (CMC) 87 % of control | dose: 400.0 mg/kg/injection, schedule: Q01DX001 (ip), vehicle: carboxymethylcellulose (CMC) 96 % of control

O=C1N(CCCl)CCN1c1ccccc1
inactive: [1] 93 % of control | dose: 100.0 mg/kg/injection, schedule: Q01DX009 (ip), vehicle: Klucel (hydroxypropylcellulose) (HPC) 104 % of control | [2] 96 % of control | dose: 200.0 mg/kg/injection, schedule: Q01DX009 (ip), vehicle: Klucel (hydroxypropylcellulose) (HPC) 106 % of control | [3] 95 % of control | dose: 400.0 mg/kg/injection, schedule: Q01DX009 (ip), vehicle: Klucel (hydroxypropylcellulose) (HPC) 106 % of control

CCCCCCCNC(=O)CI
inactive: [4] 103 % of control | [5] 111 % of control

CCCCNCCOC(=O)c1ccc(N)cc1
inactive: dose: 75.0 mg/kg/injection, schedule: Q01DX001 (ip), vehicle: saline 106 % of control

Cc1cc(=O)[nH]c(O)c1C(=O)/C=C/c1ccccc1
inactive: [4] 96 % of control | [5] 102 % of control

CC1=CCC(=O)C2(C)CC(O)C(C(C)C(=O)O)C=C12 (stereo not drawn)
inactive: dose: 100.0 mg/kg/injection, schedule: Q04DX003 (ip), vehicle: acetone 97 % of control | dose: 200.0 mg/kg/injection, schedule: Q04DX003 (ip), vehicle: acetone 95 % of control | dose: 400.0 mg/kg/injection, schedule: Q04DX003 (ip), vehicle: acetone 105 % of control

c1ccc(-c2cnc3nc4ccccc4nc3n2)cc1
inactive: dose: 75.0 mg/kg/injection, schedule: Q01DX001 (ip), vehicle: other 87 % of control | dose: 150.0 mg/kg/injection, schedule: Q01DX001 (ip), vehicle: other 91 % of control | dose: 300.0 mg/kg/injection, schedule: Q01DX001 (ip), vehicle: other 97 % of control

CNc1nc(SC)ncc1C
inactive: dose: 25.0 mg/kg/injection, schedule: Q01DX Z (ip), vehicle: methylcellulose (MC) 92 % of control | dose: 50.0 mg/kg/injection, schedule: Q01DX Z (ip), vehicle: methylcellulose (MC) 89 % of control
